{
  "source": "patent US20250302799A1",
  "about": "“PHARMACEUTICAL COMPOSITION CONTAINING FRAXETIN FOR PREVENTION OR TREATMENT OF ENDOMETRIOSIS” (Research & Business Foundation Sungkyunkwan University, priority 2024, published 2025)",
  "assay_type_in_all_cases": "cell-based, human",
  "key": {"End1/E6E7 cells [1]": {"system": "End1/E6E7 cells", "test": "Wound healing / cell migration assay", "conditions": "End1/E6E7, 50 μM fraxetin; vehicle 88%", "method": "To measure the effects of fraxetin on endometrial cell migration, the inventors used a migration culture dish insert from Ibidi to analyze cell mobility.\nIn brief, endometrial cells (VK2/E6E7, End1/E6E7) were placed in compartmentalized wells within the culture dish and cultured until they filled the compartments. Afterward, the insert separating the compartments was removed, creating a 500 μm gap for cell migration. The cells were then cultured with medium containing fraxetin at 37° C. in a 5% CO2 incubator. Cell movement across the gap was observed using an optical microscope (DM3000, Leica) and photographed, and the migration distance was calculated and quantified."}, "VK2/E6E7 cells [2]": {"system": "VK2/E6E7 cells", "test": "Icam1/Vcam1 expression in endometriosis cell line", "method": "(§1) The endometrial cell lines VK2/E6E7, End1/E6E7, and normal endometrial stromal cell line T-HESC were purchased from ATCC. The cells were cultured in keratinocyte serum-free medium or DMEM/F12 1:1 medium containing 10% FBS for monolayer culture. Endometrial cell lines (VK2/E6E7,End1/E6E7) and normal cells were cultured at 37° C. in a 5% CO2 incubator."}, "End1/E6E7 cells [3]": {"system": "End1/E6E7 cells", "test": "Icam1/Vcam1 expression in endometriosis cell line", "method": "as §1"}, "VK2/E6E7 cells [4]": {"system": "VK2/E6E7 cells", "test": "Mitochondrial membrane potential by JC-1 staining", "conditions": "VK2/E6E7"}, "VK2/E6E7 cells [5]": {"system": "VK2/E6E7 cells", "test": "Apoptosis by Annexin V and propidium iodide staining", "method": "(§2) To assess the apoptosis-inducing effect of fraxetin in endometrial cells, the inventors used a FITC Annexin V Apoptosis Detection Kit I (BD Sciences).\n(§3) First, VK2/E6E7 and End1/E6E7 cells were cultured in 6-well plates, treated with fraxetin in a dose-dependent manner (0 μM, […], 10 μM, 20 µM, 50 μM, 100 μM), and incubated for 48 hours at 37° C. in a 5% CO2 incubator. The cells were then detached using trypsin, washed with PBS, and mixed slowly with 1 mL of 1X binding buffer. After centrifugation, the cell pellet was resuspended in 200 μL of 1X binding buffer. The suspension (100 μL) was transferred to a 1.5 mL brown tube, and 5 μL of Annexin V and PI (propidium iodide) were added, followed by staining at room temperature for 15 minutes. After adding 400 μL of 1X binding buffer, the stained solution was transferred to a 5 mL FACS tube, and the number of apoptotic cells was measured by analyzing fluorescence intensity using flow cytometry."}, "End1/E6E7 cells [6]": {"system": "End1/E6E7 cells", "test": "Apoptosis by Annexin V and propidium iodide staining", "method": "as §2, §3"}, "VK2/E6E7 cells [7]": {"system": "VK2/E6E7 cells", "test": "ROS generation by DCFH-DA flow cytometry", "method": "(§4) To assess the inhibitory effect of fraxetin on ROS generation in endometrial cells, the inventors used flow cytometry to measure ROS levels. In brief, endometriosis cells were stained with DCFH-DA (final concentration 10 μM) for 30 minutes and treated with 50 μM fraxetin in experimental groups, with or without 2 mM N-acetylcysteine (NAC; Cat No. A0737, Sigma), in a 37° C. incubator. Afterward, the cells were washed with PBS, and ROS levels were detected by measuring fluorescence DCF via flow cytometry."}, "End1/E6E7 cells [8]": {"system": "End1/E6E7 cells", "test": "ROS generation by DCFH-DA flow cytometry", "method": "as §4"}, "VK2/E6E7 cells [9]": {"system": "VK2/E6E7 cells", "test": "Intracellular calcium concentration (fluo-4 staining)", "method": "(§5) To examine intracellular or mitochondrial calcium concentration changes in endometrial cells induced by fraxetin, the inventors conducted experiments using 3 μM fluo-4 acetoxymethyl ester (AM) (Invitrogen) and 3 μM rhod-2.\n(§6) First, cells were cultured in 6-well plates, treated with fraxetin in a dose-dependent manner (0 μM, 5 μM, 10 μM, 20 μM, 50 μM, 100 μM), and incubated at 37° C. in a 5% CO2 incubator for 48 hours. The cells were then detached using trypsin, washed with PBS, and stained with 3 μM fluo-4 or 3 μM rhod-2 for 20 minutes at 37° C. in a 5% CO2 incubator. After staining, the cells were washed with PBS, transferred to FACS tubes, and analyzed by flow cytometry to measure intracellular or mitochondrial calcium concentrations."}, "End1/E6E7 cells [10]": {"system": "End1/E6E7 cells", "test": "Intracellular calcium concentration (fluo-4 staining)", "method": "as §5, §6"}, "VK2/E6E7 cells [11]": {"system": "VK2/E6E7 cells", "test": "BrdU cell proliferation assay", "conditions": "VK2/E6E7, 100 μM, 48 hours", "method": "(§7) To examine the effects of fraxetin on cell proliferation, the inventors performed a BrdU cell proliferation assay.\n(§8) First, 5×10^3 cells of VK2/E6E7, End1/E6E7, and T-HESC were each distributed in 100 μL of medium in 96-well plates.\n(§9) Fraxetin was then administered in a dose-dependent manner (0μM, 5 μM, 10 μM, 20 uM, 50 μM, 100 uM) and cultured for 48 hours, followed by the BrdU assay using a BrdU kit (Cat No: 1167229001, Roche) according to the manufacturer's instructions.\n(§10) After 48 hours of incubation, 10 μM BrdU (Bromodeoxyuridine) was added to each well and incubated at 37° C. in a 5% CO2 incubator for 2 hours. The cells were then fixed, reacted with anti-BrdU-POD solution at room temperature for 90 minutes, and washed three times. Finally, 100 μL of 3, 3′, 5, 5′-tetramethylbenzidine substrate was added, and absorbance was measured at wavelengths of 370 nm and 492 nm to analyze cell proliferation."}, "End1/E6E7 cells [12]": {"system": "End1/E6E7 cells", "test": "BrdU cell proliferation assay", "conditions": "End1/E6E7, all concentrations (5-100 μM), 48 hours", "method": "as §7, §8, §9, §10"}, "endometrial cells": {"system": "endometrial cells", "test": "tiRNA expression by real-time PCR (cell line not stated)", "conditions": "following fraxetin treatment", "method": "To confirm the expression of tiRNA (tRNA-derived stress-induced RNAs) associated with the development of endometriosis, the inventors conducted real-time PCR.\nFirst, information on candidate tiRNA sequences and mature tRNA sources was obtained from MINTbase (https://cm.jefferson.edu/MINTbase/). miRNA CDNA synthesis was performed using a cDNA kit (Agilent Technologies) to confirm tiRNA expression, with U6 snRNA used for normalization. For transfection of the tiRNA^His GTG inhibitor (5′-AACCGAGAGUACUAACCACUAUACGAUCACCGC-3′) (40 nM), Lipofectamine 2000 was used in Opti-MEM."}, "[13]": {"conditions": "VK2/E6E7, Example 7 comparison fraxetin vs dienogest"}, "[14]": {"conditions": "End1/E6E7, Example 7 comparison fraxetin vs dienogest"}},
  "data": [
    {"compound": "COc1cc2ccc(=O)oc2c(O)c1O", "note": "[fraxetin]", "values": [
      {"measurement": "wound closure", "setting": "End1/E6E7 cells [1]", "value": 7, "unit": "%"},
      {"measurement": "expression levels of Icam1 and Vcam1", "setting": "VK2/E6E7 cells [2]", "value": "significant decrease"},
      {"measurement": "expression levels of Icam1 and Vcam1", "setting": "End1/E6E7 cells [3]", "value": "significant decrease"},
      {"measurement": "relative membrane potential loss rate increase", "setting": "VK2/E6E7 cells [4]", "value": 2.6, "unit": "fold"},
      {"measurement": "early and late apoptosis cell populations", "setting": "VK2/E6E7 cells [5]; VK2/E6E7, Example 6", "value": "tended to increase"},
      {"measurement": "early and late apoptosis", "setting": "VK2/E6E7 cells [5]; [13]", "value": "induced both early and late apoptosis"},
      {"measurement": "early and late apoptosis cell populations", "setting": "End1/E6E7 cells [6]; End1/E6E7, Example 6", "value": "tended to increase"},
      {"measurement": "early and late apoptosis", "setting": "End1/E6E7 cells [6]; [14]", "value": "induced both early and late apoptosis"},
      {"measurement": "relative ROS generation", "setting": "VK2/E6E7 cells [7]; [13]", "value": "> 200", "unit": "%"},
      {"measurement": "ROS generation compared to control", "setting": "VK2/E6E7 cells [7]; VK2/E6E7, fraxetin-treated", "value": "up to 1.5 fold"},
      {"measurement": "relative ROS generation", "setting": "End1/E6E7 cells [8]; [14]", "value": "over 150%"},
      {"measurement": "ROS generation compared to control", "setting": "End1/E6E7 cells [8]; End1/E6E7, fraxetin-treated", "value": "up to 1.5 fold"},
      {"measurement": "calcium levels (upregulated to)", "setting": "VK2/E6E7 cells [9]", "value": 300, "unit": "%"},
      {"measurement": "calcium levels (upregulated to)", "setting": "End1/E6E7 cells [10]", "value": 180, "unit": "%"},
      {"measurement": "reduction of cell proliferation", "setting": "VK2/E6E7 cells [11]", "value": "approximately 40%"},
      {"measurement": "cell proliferation (remaining)", "setting": "End1/E6E7 cells [12]", "value": "below 50%"},
      {"measurement": "mRNA expression of tiRNA^GlyCCC, tiRNA^ValCAC, tiRNA^AspGTC and tiRNA^GluCTC", "setting": "endometrial cells", "value": "minimal change"},
      {"measurement": "tiRNA^HisGTG expression", "setting": "endometrial cells", "value": "increased by more than twofold"}
    ]}
  ]
}
